Type in all cases: cell-based, human
The test system of one assay is Patient 14 TCC-01. As to the kind of experiment: IFN-γ ELISpot with T cell clone. In a few lines: (§1)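 T cell clones from coeliac patients were derived by single-cell sorting of CFSE-labeled PBMC that proliferated after 7 days with antigen in IMDM plus 5% pooled human serum. Clones were expanded with IL-2 and IL-4, and IFN-γ ELISpot tested their specificity using irradiated HLA-matched PBMC as antigen-presenting cells.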

Another assay relates to Patient 6 TCC-01. In words: IFN-γ ELISpot with T cell clone. The essentials:
as §1

The next assay deals with Patient 2 TCC-01. As to the kind of experiment: IFN-γ ELISpot with T cell clone. In a few lines:
as §1

In a further assay the test system is Patient 9 TCC-01. In words: IFN-γ ELISpot with T cell clone. To be noted: TCC Patient 9 TCC-01, peptide 50 μg/mL. In a few lines:
as §1

Another assay relates to Patient 9 TCC-02. As to the kind of experiment: IFN-γ ELISpot with T cell clone. To be noted: TCC Patient 9 TCC-02, peptide 50 μg/mL. In a few lines:
as §1

A further assay deals with Patient 10 TCC-01. In words: IFN-γ ELISpot with T cell clone. To be noted: TCC Patient 10 TCC-01, peptide 50 μg/mL. In a few lines:
as §1

In a further assay the test system is Patient 2 TCC-03. As to the kind of experiment: IFN-γ ELISpot with T cell clone. To be noted: TCC Patient 2 TCC-03, peptide 25 μg/mL. In a few lines:
as §1

In the next assay the test system is Patient 2 TCC-02. In words: IFN-γ ELISpot with T cell clone. Conditions: for IFN-γ ELISpot response (SFU) / significant SFU as a percentage of maximal peptide SFU: TCC Patient 2 TCC-02, peptide 25 μg/mL. The essentials:
as §1

The subject of the next assay is Patient 8 TCC-01. In words: IFN-γ ELISpot with T cell clone. To be noted: TCC Patient 8 TCC-01, peptide 25 μg/mL. In a few lines:
as §1

The test system of assay [1] is PBMC. As to the kind of experiment: IFN-γ ELISpot on PBMC of CD patients on day 6 after 3-day oats challenge. To be noted: after 3-day oats challenge. From the text: (§2) Australian Caucasian HLA-DQ2.5^+ and/or HLA-DQ8^+ CD subjects were recruited by advertisement in the Coeliac Society of Victoria newsletter and all had biopsy-proven CD conforming to ESPGHAN criteria. Patients had been on strict gluten free diet for at least 4 weeks prior to commencing grain challenge. Patients underwent 3-day grain challenge with oats, barley, or combined wheat, barley, and rye muffins, and 6 days after commencement, blood was collected. Day 0 responses were not observed in the selection of patients tested, as described previously^8.
(§3) Oats challenge consisted of 100 g dry weight daily of one of three commercial brands of oats: one not tested for wheat contamination (Uncle Toby's; Oats #1), and two shown by R5 ELISA to contain less than 20 ppm wheat gluten (Tilquhilie Pudding; Oats #2 and Freedom Food; Oats #3). Barley challenge consisted of pearl barley (Ward McKenzie) cooked into a risotto (150 g dry weight daily) and the wheat challenge consisted of four 50 g slices of wheat bread daily (Baker's Delight white loaf cut to toasting thickness). The combined wheat, barley, and rye challenge consisted of muffins baked with wheat flour (White Wings), barley flour (Four Leaf Milling), and rye flour (Four Leaf Milling; 22-25 g dry weight each daily). A symptom diary based on a […] Likert scale was completed by participants daily from baseline until day 6.
(§4) Two avenin peptide libraries were utilized for epitope screening. These were designed using avenin sequences from GenBank and a customized algorithm, as previously described^9. The initial library consisted of 199 screening-grade 20 mers including all possible 12 mers (Mimotopes). This library was screened with and without tTG pre-treatment. The second library consisted of additional avenin sequences that were synthesized with glutamate substitution at sites predicted to be deamidated by published algorithms^10, 11 removing the requirement for tTG treatment. This library contained 369 screening-grade 20 mers, including all possible 12 mers (Pepscan). The second round avenin library contained wild-type and deamidated versions of the most immunogenic sequences (25 high quality 16 mers from Mimotopes). High quality peptides containing previously described immunogenic sequences from wheat, barley, and rye were used to test for cross-reactivity^8 (Pepscan). High quality hordein and avenin peptides for TCC testing and biochemical studies were ordered from Pepscan, Mimotopes, or GL Biochem.
(§5) Peripheral blood mononuclear cells (PBMC) were isolated from heparinized whole blood using Ficoll-Paque™ Plus density-gradient centrifugation (GE Healthcare). IFN-γ ELISpot (Mabtech) was set up as previously described^8.

Assay [2] relates to PBMC. As to the kind of experiment: IFN-γ ELISpot on PBMC of CD patients after 3-day barley challenge. To be noted: after barley challenge.
Excerpt: as §2, §3, §4, §5

The mark [3] stands for this setting: TCC Patient 14 TCC-01, peptide 50 μg/mL.
The mark [4] stands for this setting: TCC Patient 6 TCC-01, peptide 50 μg/mL.
Setting [5] is: TCC Patient 2 TCC-01, peptide 50 μg/mL.
Setting [6] is: TCC Patient 6 TCC-01, peptide 25 μg/mL.
[7] abbreviates: TCC Patient 2 TCC-01, peptide 25 μg/mL.

[ ]: non-standard residue; d: D form. pGlu = O=C1CC[C@@H](C(=O)O)N1

Consider LQPFPQPELPYPQPQ [reference compound], for which the “IFN-γ ELISpot response (raw SFU)” value in the assay on Patient 14 TCC-01 (setting [3]) is given as 22 SFU; in the assay on Patient 6 TCC-01 (setting [4]), 2 SFU; in the assay on Patient 2 TCC-01 (setting [5]), 0 SFU; in the assay on Patient 9 TCC-01, 287 SFU; in the assay on Patient 9 TCC-02, 240 SFU; in the assay with Patient 10 TCC-01 it was 39 SFU. For the same sequence, the “significant SFU as a percentage of maximal peptide SFU” value (“significant SFU as a percentage” below) in the assay on Patient 9 TCC-01 and in the assay with Patient 9 TCC-02 was “*** (***: >70%)” in each case.
“QPFPQPEQPFPWQP ([pGlu]PFPQPEQPFPWQP-NH2; SMILES NC(=O)CC[C@H](NC(=O)[C@H](Cc1c[nH]c2ccccc12)NC(=O)[C@@H]1CCCN1C(=O)[C@H](Cc1ccccc1)NC(=O)[C@@H]1CCCN1C(=O)[C@H](CCC(N)=O)NC(=O)[C@H](CCC(=O)O)NC(=O)[C@@H]1CCCN1C(=O)[C@H](CCC(N)=O)NC(=O)[C@@H]1CCCN1C(=O)[C@H](Cc1ccccc1)NC(=O)[C@@H]1CCCN1C(=O)[C@@H]1CCC(=O)N1)C(=O)N1CCC[C@H]1C(N)=O) [wheat gliadin peptide containing DQ2.5-glia-ω1 and DQ2.5-glia-ω2, reference compound]”: the “IFN-γ ELISpot response (raw SFU)” value in the assay with Patient 14 TCC-01 (setting [3]) turned out to be 20 SFU; in the assay on Patient 6 TCC-01 (setting [4]), 1 SFU; in the assay on Patient 2 TCC-01 (setting [5]), 2 SFU; with Patient 9 TCC-01 it was 1 SFU; in the assay with Patient 9 TCC-02 it was 0 SFU; with Patient 10 TCC-01, 205 SFU. Also, the “significant SFU as a percentage” value in the assay on Patient 10 TCC-01 is reported as “*** (***: >70%)”.
In the case of QYQPYPEQEEPFVQQQ, the “IFN-γ ELISpot response (SFU)” value in the assay on Patient 6 TCC-01 (setting [6]) amounted to 1 SFU; in the assay on Patient 2 TCC-01 (setting [7]) it was 2 SFU; in the assay on Patient 2 TCC-03 it was 0 SFU; in the assay on Patient 2 TCC-02, 284 SFU; with Patient 8 TCC-01, 0 SFU. The “rank of TCC response among homologous peptides” value in the assay with Patient 2 TCC-02 (Patient 2 TCC-02 (FIG. 2)) was “greatest response”. Moreover, the “significant SFU as a percentage” value is reported as “*** (***: >70%)” with Patient 2 TCC-02; “** (**: 40-70%)” in the assay with PBMC [1] (patient P1, peptide 10 μg/ml); “* (*: 20-40%)” in the assay on PBMC [1] (patient P2, peptide 10 μg/ml); “* (*: 20-40%)” with PBMC [1] (patient P2, peptide 100 μg/ml); “* (*: 20-40%)” in the assay with PBMC [1] (patient P3, peptide 1 μg/ml); “** (**: 40-70%)” in the assay on PBMC [1] (patient P3, peptide 10 μg/ml). For the same sequence, the “IFN-γ ELISpot response (raw SFU)” value in the assay with PBMC [1] (patient P1, peptide 1 μg/ml) is given as 8 SFU; with PBMC [1] (patient P1, peptide 10 μg/ml), 15 SFU; with PBMC [1] (patient P1, peptide 100 μg/ml), 5 SFU; in the assay on PBMC [1] (patient P2, peptide 1 μg/ml), 7 SFU; in the assay on PBMC [1] (patient P2, peptide 10 μg/ml), 12 SFU; with PBMC [1] (patient P2, peptide 100 μg/ml) it was 20 SFU. For the same sequence, the “IFN-γ ELISpot response (raw SFU)” value in the assay with PBMC [1] (patient P3, peptide 1 μg/ml) amounted to 20 SFU; in the assay with PBMC [1] (patient P3, peptide 10 μg/ml), 31 SFU; with PBMC [1] (patient P3, peptide 100 μg/ml), 2 SFU; with PBMC [1] (patient P11, peptide 1 μg/ml), 2 SFU; with PBMC [1] (patient P11, peptide 10 μg/ml), 0 SFU; in the assay on PBMC [1] (patient P11, peptide 100 μg/ml), 0 SFU. Besides, the “IFN-γ ELISpot response (raw SFU)” value in the assay with PBMC [1] (patient P12, peptide 1 μg/ml) was 4 SFU; in the assay with PBMC [1] (patient P12, peptide 10 μg/ml), 3 SFU; in the assay on PBMC [1] (patient P12, peptide 100 μg/ml), 2 SFU; with PBMC [1] (patient P13, peptide 50 μg/ml), 9 SFU.
Turning to SEQYQPYPEQEQPFV [DQ2.5-ave-1b], the “IFN-γ ELISpot response (SFU)” value in the assay on Patient 6 TCC-01 (setting [6]) was 30 SFU; with Patient 2 TCC-01 (setting [7]), 240 SFU; with Patient 2 TCC-03, 1 SFU; in the assay on Patient 2 TCC-02 it was 102 SFU; with Patient 8 TCC-01, 50 SFU. The “significant SFU as a percentage” value is given as “* (*: 20-40%)” in the assay on Patient 6 TCC-01 (setting [6]), “*** (***: >70%)” in the assay on Patient 2 TCC-01 (setting [7]), “* (*: 20-40%)” in the assay with Patient 2 TCC-02 and “* (*: 20-40%)” in the assay with Patient 8 TCC-01.
As for “SEQYQPYPEQEQPFVQ [deamidated avenin peptide containing DQ2.5-ave-1b]”, the “IFN-γ ELISpot response (raw SFU)” value with Patient 14 TCC-01 (TCC Patient 14 TCC-01 (Table 5), mean no antigen 11.3, high background, SFU >25 considered as positive responses) was 10 SFU; with Patient 6 TCC-01 (TCC Patient 6 TCC-01 (Table 5), mean no antigen 2), 12 SFU; in the assay on Patient 2 TCC-01 (TCC Patient 2 TCC-01 (Table 5), mean no antigen 1.1), 295 SFU; in the assay with PBMC [1] (patient P1, peptide 1 μg/ml), 24 SFU; in the assay with PBMC [1] (patient P1, peptide 10 μg/ml) it was 18 SFU; in the assay on PBMC [1] (patient P1, peptide 100 μg/ml), 10 SFU. For the same sequence, the “IFN-γ ELISpot response (raw SFU)” value with PBMC [1] (patient P2, peptide 1 μg/ml) is on record as 5 SFU; with PBMC [1] (patient P2, peptide 10 μg/ml), 9 SFU; in the assay on PBMC [1] (patient P2, peptide 100 μg/ml), 24 SFU; in the assay with PBMC [1] (patient P3, peptide 1 μg/ml), 4 SFU; with PBMC [1] (patient P3, peptide 10 μg/ml), 7 SFU; in the assay with PBMC [1] (patient P3, peptide 100 μg/ml), 2 SFU. In addition, the “IFN-γ ELISpot response (raw SFU)” value amounted to 0 SFU with PBMC [1] (patient P11, peptide 1 μg/ml); 3 SFU in the assay on PBMC [1] (patient P11, peptide 10 μg/ml); 0 SFU in the assay with PBMC [1] (patient P11, peptide 100 μg/ml); 2 SFU with PBMC [1] (patient P12, peptide 1 μg/ml); 4 SFU in the assay on PBMC [1] (patient P12, peptide 10 μg/ml); 2 SFU in the assay on PBMC [1] (patient P12, peptide 100 μg/ml). Moreover, the “IFN-γ ELISpot response (raw SFU)” value is 13 SFU in the assay on PBMC [1] (patient P13, peptide 50 μg/ml); 77 SFU with PBMC [2] (Patient 1, peptide 50 μg/ml); 225 SFU with PBMC [2] (Patient 2, peptide 50 μg/ml); 36 SFU with PBMC [2] (Patient 3, peptide 50 μg/ml). Besides, the “significant SFU as a percentage” value in the assay with PBMC [1] (patient P1, peptide 1 μg/ml) was “*** (***: >70%)”; in the assay on PBMC [1] (patient P1, peptide 10 μg/ml), “** (**: 40-70%)”; in the assay with PBMC [1] (patient P2, peptide 100 μg/ml), “** (**: 40-70%)”; in the assay on PBMC [1] (patient P13, peptide 50 μg/ml) it was “* (*: 20-40%)”; in the assay on PBMC [2] (Patient 1, peptide 50 μg/ml) it was “* (*: 20-40%)”; with PBMC [2] (Patient 2, peptide 50 μg/ml), “*** (***: >70%)”. In addition, the “significant SFU as a percentage” value with PBMC [2] (Patient 3, peptide 50 μg/ml) is recorded as “* (*: 20-40%)”.

The record behind these values is patent publication US20160238590A1, “COMPOSITIONS AND METHODS RELATED TO OAT SENSITIVITY” (IMMUSANT, INC., priority 2013, published 2016).
